Results: patent publication US11707440B2 (priority 2017, dated 2023)

What was measured:
[1] = test system: subjects with MDD at imminent risk for suicide; experiment: Beck Scale for Suicidal Ideation (BSS), […]2001; format: in vivo, human; details: esketamine 84 mg; Day 1: 4-hours postdose, Day 2 (DB), or End Point (DB)
Protocol: The BSS is a 21-item self-reported instrument to detect and measure the severity of suicidal ideation in adults and adolescents aged 17 years and older. The BSS total score represents the severity of suicide ideation, and it is calculated by summing the ratings of the first 19 items; the total score ranges from 0 to 38, with a higher score representing greater suicide ideation. Increasing scores reflect increases in suicidal risk.

[2] = test system: subjects with MDD at imminent risk for suicide; experiment: Sustained response, response and remission based on MADRS, […]2001; format: in vivo, human; details: esketamine 84 mg; at least 50% MADRS reduction from Day 1 4 hours through Day 25
From the text: • a. Changes from baseline to Day 2 and Day 25 for the MADRS total score • b. Changes from baseline to Day 1 4-hours postdose, Day 2 and Day 25 for the MADRS Suicide Item • c. Changes from baseline to Day 1 4-hours postdose, Day 2, and Day 25 for the clinical global judgment of suicide risk from the Suicide Ideation and Behavior Assessment Tool (SIBAT) • d. Sustained response (Onset of Clinical Response) defined as at least 50% reduction from baseline in MADRS total score with onset on Day 1 that is maintained through the end of the double-blind phase (Day 25) • e. Changes from baseline to Day 1 4-hours postdose, Day 2, and Day 25 for the Beck Scale for Suicidal Ideation (BSS) • f. Changes from baseline to Day 1 4-hours postdose and Day 25 for the Beck Hopelessness Scale
Sustained response is defined as at least 50% reduction from baseline in MADRS total score with onset on Day 1: 4 hours postdose that is maintained through the end of the double-blind phase (Day 25). Four subjects in the esketamine 84 mg group and 2 subjects in the placebo group had sustained response throughout the double-blind phase.

[3] = test system: subjects with MDD at imminent risk for suicide; experiment: MADRS total score, study […]2001; format: in vivo, human; details: esketamine 84 mg; baseline to Day 1, 4-hours postdose; ANCOVA
From the text: Primary efficacy variable/Primary Time point: Change from baseline (Day 1, predose) to Day 1, 4-hours postdose in MADRS total score. The MADRS consists of 10 items that cover all of the core depressive symptoms, with each item scoring from 0 (item is not present or is normal) to 6 (severe or continuous presence of the symptom). A higher score represents a more severe condition.
The primary efficacy endpoint is the change in MADRS total score from baseline to Day 1: 4-hours postdose. MADRS total scores range from 0 to 60. […] As this is a phase 2a proof-of-concept study, statistical significance is based on a two-sided alpha level of 0.20. All p-values presented in this document are two-sided.

[4] = test system: subjects with MDD at imminent risk for suicide; details: esketamine 84 mg

In the case of `CN[C@]1(c2ccccc2Cl)CCCCC1=O` [esketamine, (S)-2-(2-chlorophenyl)-2-(methylamino)cyclohexanone], the “BSS total score change vs placebo” value [1] is reported as “no statistically significant differences”, the “Subjects with sustained response throughout the double-blind phase” value [2] is reported as “Four” and the “MADRS total score, least-square mean difference (SE) from placebo” value [3] is reported as −5.3 (2.10). For the same compound, the “Subjects who discontinued from the double-blind phase due to (treatment-emergent) adverse events” value [4] was 5 subjects, the “Subjects with a serious TEAE” value ([4]; double-blind phase) was “Four” and the “Subjects with at least one TEAE” value ([4]; double-blind phase) was 94.3%. For the same compound, the TEAE dissociation ([4]; double-blind phase) was 31.4%, the TEAE dizziness ([4]; double-blind phase) was 34.3% and the TEAE dysgeusia ([4]; double-blind phase) was 31.4%. It also gave a TEAE headache ([4]; double-blind phase) of 31.4%, a TEAE nausea ([4]; double-blind phase) of 37.1% and a TEAE vomiting ([4]; double-blind phase) of 20.0%. For the same compound, the “Subjects with a serious adverse event” value ([4]; follow up phase) was 1 subjects and the “Subjects with at least one adverse event” value ([4]; follow up phase) was 48.1%.
